Values of other authors, collected in patent US12018060B2 (HANMI PHARM CO., LTD., priority 2014, dated 2024).

Settings: after one year of administration

CCCCCCCCCCC[C@@H](C[C@@H]1OC(=O)[C@H]1CCCCCC)OC(=O)[C@H](CC(C)C)NC=O [Orlist®, Orlistat]
body weight decrease: about 4 kg
